Test results reported in patent US8779005B2, “Salts of desvenlafaxine and a method of their preparation” (Zentiva k.s., priority 2009, dated 2014).

How the values were obtained:
[1] = Measurement of the dissolution rate (USP Wood Apparatus, rotary disk method); format: physicochemical; conditions: for Dissolution rate constants at pH 2: pH 2 (0.01 M HCl), 37° C.; for Dissolution rate constants at pH 2 / Dissolution rate constants at pH 6.8: rotary disk; for Dissolution rate constants at pH 6.8: phosphate buffer of pH 6.8, 37° C.
Procedure: Measurement of the Dissolution Rate The dissolution rate of desvenlafaxine salts (Table 2) in water at various pH values was measured in a Varian-Vankel System, USP Wood Apparatus (rotary disk method). A disk with the diameter of 5 mm was prepared by compression from about 0.2 g of the substance.

[2] = Measurement of equilibrium solubility; conditions: 24-hour stirring; for solubility thermodynamic at 24 h: 25 °C, thermodynamic from solid; for Equilibrium solubility at pH 2: pH 2 (0.01 M HCl), 25° C.; for Equilibrium solubility at pH 6.8: phosphate buffer of pH 6.8, 25° C.
[3] = in vivo; cited from earlier work
[4] = 0.01 M HCl, pH 2, simulated gastric fluid, Equilibrium solubility at pH 2, pH 2 (0.01 M HCl)
[5] = phosphate buffer, pH 6.8, aqueous buffer, Equilibrium solubility at pH 6.8, phosphate buffer of pH 6.8, 25° C.
[6] = dihydrate, Hemioxalate Trihydrate

Structure (SMILES) | Dissolution rate constants at pH 2 [1] [mg/cm^2/min] | Dissolution rate constants at pH 6.8 [1] [mg/cm^2/min] | solubility thermodynamic at 24 h [2, 4] [mg/mL] | solubility thermodynamic at 24 h [2, 5] [mg/mL] | Equilibrium solubility at pH 2 [2] [mg/ml] | Equilibrium solubility at pH 6.8 [2] [mg/ml] | Dissolution rate constants at pH 2 ([1]; Hemioxalate Trihydrate) [mg/cm^2/min] | Dissolution rate constants at pH 6.8 ([1]; Hemioxalate Trihydrate) [mg/cm^2/min] | Equilibrium solubility at pH 2 [2, 6] [mg/ml] | Equilibrium solubility at pH 6.8 [2, 6] [mg/ml] | Dissolution speed in water relative to hydrogen fumarate ([1]; in water, compared with hydrogen fumarate) | Biological availability (absorption of desvenlafaxine in rat intestine) relative to hydrogen fumarate [3]
CN(C)CC(c1ccc(O)cc1)C1(O)CCCCC1.O=C(O)C(=O)O (centres unmarked) [Hydrogen oxalate hydrate, Desvenlafaxine Hydrogen Oxalate Hydrate] | 7.1 | 6.0 | 89 | 63 |  |  |  |  |  |  |  | 
CN(C)CC(c1ccc(O)cc1)C1(O)CCCCC1 (centres unmarked) [Hemioxalate, anhydrous, Anhydrous Desvenlafaxine Hemioxalate] | 6.6 | 5.9 |  |  | 92 | 80 |  |  |  |  |  | 
CN(C)CC(c1ccc(O)cc1)C1(O)CCCCC1.O=C(O)/C=C/C(=O)O (centres unmarked) [Hydrogen fumarate hydrate, Desvenlafaxine hydrogen fumarate] | 0.8 | 0.8 | 8 | 8 |  |  |  |  |  |  |  | 
CN(C)CC(c1ccc(O)cc1)C1(O)CCCCC1 (centres unmarked) [Hemioxalate, hydrate, Desvenlafaxine Hemioxalate Trihydrate] |  |  |  |  |  |  | >10 | >10 | 86 | 71 |  | 
CN(C)CC(c1ccc(O)cc1)C1(O)CCCCC1.O=C(O)CCC(=O)O (centres unmarked) [Hydrogen succinate hydrate, Desvenlafaxine hydrogen succinate] | 3.1 | 3.2 | 53 | 58 |  |  |  |  |  |  | approximately twice as fast | roughly three times higher
CN(C)CC(c1ccc(O)cc1)C1(O)CCCCC1 (centres unmarked) [Base, Desvenlafaxine] | 0.6 | 0.2 |  |  | 2 | 4 |  |  |  |  |  | 
